For orientation: ED50 means the dose at which the effect has come halfway, by size or by number of responders. As a reminder, the IC50 is the concentration that inhibits the measured activity by half.

The results in this text go back to US20080004272A1, “Compositions and methods for modulating gated ion channels” (PainCeptor Pharma Corporation, priority 2006, published 2008).

Like-named read-outs stand apart in the source and are kept apart here. Some results are limits rather than exact numbers.

For one experiment, the system named is formalin-induced pain. The experiment in a line: Formalin test, model of acute tonic pain. It is filed as in vivo. The conditions noted are these: rat; for Effect on pain intensity (flinching or licking behaviors): s.c. 30 min prior to formalin injection; for ED50: sc, s.c. 30 min prior to formalin, licking and biting episodes in phase IIa, read-out: ED50, effective dose where the pain score is reduced by half. Here is the method:
Male Sprague-Dawley rats are housed together in groups of three animals under standard conditions with unrestricted access to food and water. All experiments are conducted according to the ethical guidelines for investigations of experimental pain in conscious animals (Zimmerman, 1983)
Assessment of formalin-induced flinching behavior in normal, uninjured rats (body weight 150-180 g) is made with the use of an Automated Nociception Analyser (University of California, San Diego, USA). Briefly, this involves placing a small C-shaped metal band (10 mm wide×27 mm long) on the hindpaw of the rat to be tested. The rats (four rats are included in each testing session) are then placed in a cylindrical plexiglass observation chamber (diameter 30.5 cm and height 15 cm) for 20 min for adaptation purposes prior to being administered drug or vehicle according to the experimental paradigm being followed. After adaptation, individual rats are then gently restrained and formalin (5% in saline, 50 μl, s.c.) is injected into the plantar surface of the hindpaw using a 27G needle. Rats are then returned to their separate observation chambers, each of which are in turn situated upon an enclosed detection device consisting of two electromagnetic coils designed to produce an electromagnetic field in which movement of the metal band could be detected. […] A sampling interval of 1 min is used and on the basis of the resulting response patterns 5 phases of nociceptive behaviour are identified and scored: first phase (P1; 0-5 min), interphase (Int; 6-15 min), second phase (P2; […]), phase 2A (P2A; 16-40 min) and phase 2B (P2B; 41-60 min).
Nociceptive behavior is also determined manually every 5 min by measuring the amount of time spent in each of four behavioral categories: 0, treatment of the injected hindpaw is indistinguishable from that of the contralateral paw; 1, the injected paw has little or no weight placed on it; 2, the injected paw is elevated and is not in contact with any surface; 3, the injected paw is licked, bitten, or shaken. A weighted nociceptive score, ranging from 0 to 3 is calculated by multiplying the time spent in each category by the category weight, summing these products, and dividing by the total time for each 5 min block of time. […] On the basis of the resulting response patterns, […] of nociceptive behavior are identified and scored: first phase (P1; 0-5 min), interphase (Int; 6-15 min), second phase (P2; […]), phase 2A (P2A; 16-40 min) and phase 2B (P2B; 41-60 min).
Statistical analysis is performed using the Prism™ 4.01 software package (GraphPad, San Diego, Calif., USA). The difference in response levels between treatment groups and control vehicle group is analyzed using an ANOVA followed by Bonferroni's method for post-hoc pair-wise comparisons. […]

In the next experiment the target is T1, ASIC1a (Homo sapiens, UniProt P78348).
T1 sequence (P78348 1-528): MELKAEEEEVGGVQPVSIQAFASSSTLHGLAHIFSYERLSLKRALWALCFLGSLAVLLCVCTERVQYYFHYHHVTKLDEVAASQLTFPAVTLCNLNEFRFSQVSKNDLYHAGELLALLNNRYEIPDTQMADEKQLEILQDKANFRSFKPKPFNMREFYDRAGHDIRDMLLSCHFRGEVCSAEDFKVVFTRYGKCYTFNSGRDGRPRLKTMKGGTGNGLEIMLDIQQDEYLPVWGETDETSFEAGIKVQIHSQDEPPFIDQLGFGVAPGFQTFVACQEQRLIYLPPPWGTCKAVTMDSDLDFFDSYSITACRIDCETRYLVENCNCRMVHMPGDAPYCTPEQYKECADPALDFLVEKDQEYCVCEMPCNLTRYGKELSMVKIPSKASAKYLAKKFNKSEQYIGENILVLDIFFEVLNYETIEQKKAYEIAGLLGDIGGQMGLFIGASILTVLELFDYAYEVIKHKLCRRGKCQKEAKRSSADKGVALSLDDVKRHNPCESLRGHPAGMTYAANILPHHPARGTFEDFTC
In words: Two-electrode voltage clamp in Xenopus laevis oocytes (Xo), acid-induced currents. It is filed as cell-based. Also on record: expressed in transfected cells; host or cells: Xenopus laevis oocytes (nuclear microinjection of expression vector such as pcDNA3). The conditions noted are these: for inhibition at 50 µM: Xenopus oocytes, read-out: % inh. at 50 μM (Xo). An outline of the steps:
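Defolliculated oocytes were nuclear-injected with channel cDNA and expressed for 2–4 days at 19 °C. Under two-electrode voltage clamp at room temperature, oocytes were superfused with pH 7.4 Ringer, and currents were evoked by switching to acidic MES Ringer (pH<7). Compound was present in both control and acidic solutions.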
A general note: Two-electrode voltage clamp holds a large cell at a set potential and records current.

Regarding `COc1ccc(F)cc1-c1cc(C#N)c(N)c2c1CCN(C)C2` [Compound 206, 8-Amino-5-(5-fluoro-2-methoxy-phenyl)-2-methyl-1,2,3,4-tetrahydro-isoquinoline-7-carbonitrile], in the experiment on formalin-induced pain, the “Effect on pain intensity (flinching or licking behaviors)” value was “dose-dependent reduction of the pain intensity” and the median effective dose (ED50) amounted to 50 mg/kg. At ASIC1a, the inhibition at 50 µM lay within 50 to 70%. In addition, the IC50 at ASIC1a (Xenopus laevis oocytes, three point dose-response, read-out: IC50, half maximal inhibition of the acid-evoked response in hASIC1a) came to 34 µM.

With `CN1CCc2c(-c3ccccc3)cc(C#N)c(N)c2C1` [Compound 203, 8-Amino-2-methyl-5-phenyl-1,2,3,4-tetrahydro-isoquinoline-7-carbonitrile], in the experiment with formalin-induced pain, the “Effect on pain intensity (flinching or licking behaviors)” value is on record as “dose-dependent reduction of the pain intensity” and the ED50 was 6 mg/kg. Besides, at ASIC1a, the IC50 is 6.2 µM and the inhibition at 50 µM is above 70%.
